Data as given in patent US7033595B1, “Pseudotyped retroviruses and stable cell lines for their production” (priority 1998, dated 2006).

How the values were obtained:
Format in all cases: cell-based
[1] = tested on: Ross-River E2-E1 pseudotyped retrovirus
[2] = tested on: VSV-G pseudotyped retrovirus
[3] = tested on: wild type MMLV

SMILES	inhibition of transduction by Ross River glycoprotein-pseudotyped viruses [1]	inhibition of VSV-G pseudotyped retrovirus entry [2]	effect on wild type MMLV entry [3]
Cl.N [ammonium chloride]	dramatic inhibition	inhibit	–
CCN(CC)CCCC(C)Nc1ccnc2cc(Cl)ccc12 (centres unmarked) [chloroquine]	dramatic inhibition	inhibit	only partially affects
